Tests used:
KAT2A = KAT2A (Homo sapiens, UniProt Q92830); assay: KAT2A degradation, Western Blot (Jess), NCI-H1048 cells; assay type: cell-based; design: degrader, Western blot (Jess); conditions: NCI-H1048 cells, KAT2A, 24 h, Western Blot, vs DMSO; read-out: KAT2A NCI-H1048 DC50
Protocol: (§1) MOLM-13 cells or NCI-H1048 cells were used for Western Blot analysis of KAT2A degradation. KAT2B degradation can be measured in a similar manner with NCI-H1048 cells.
(§2) H1048 cells were maintained at 37° C. in 5% CO2 and 90% humidity in HITES medium with 5% fetal bovine serum (FBS). HITES medium was […] with the following additions: 0.005 mg/ml Insulin, 0.01 mg/ml Transferrin, 30 nM Sodium selenite, 10 nM Hydrocortisone, 10 nM beta-estradiol, and extra 2 mM L-glutamine (for final concentration of 4.5 mM). Cells were plated in full media at 1 million cells/2 mL in a 6-well tissue culture treated plate with or without compounds for 24 h at 37° C. in 5% CO2.
(§3) MOLM-13 cells or NCI-H1048 cells were washed with PBS, then lysed with RIPA buffer containing 1×protease and phosphatase inhibitors (SantaCruz Biotechnologies Cat #sc-24948A). Protein was isolated by centrifugation at 12,000×g for 10 minutes at 4° C. and supernatant was collected. Protein was quantified via Bradford assay. Samples were diluted to 4 μg lysate in 16 μL RIPA buffer and then 4 μL of Jess Sample Buffer. Samples were heated at 95° C. for 5 minutes. Samples were loaded onto 12-230 kDa Jess™ Separation Module, 8×25 capillary cartridges (SM-W004, Biotechne). Antibodies loaded were: Primary antibody for KAT2A (GCN5L2 (C26A10) Rabbit mAb (3305, CST)) and for KAT2B (PCAF (C14G9)) Rabbit mAb (3378, CST) at 1:1000 and Anti-Rabbit Detection Module for Jess™ (Cat No #DM-001, Biotechne). Signal was detected by chemiluminescence.
(§4) DC50 values were determined from percent reduction of protein as compared to the DMSO control.

KAT2B = KAT2B (Homo sapiens, UniProt Q92831); assay: KAT2B degradation, Western Blot (Jess), NCI-H1048 cells; assay type: cell-based; design: degrader, Western blot (Jess); conditions: NCI-H1048 cells, KAT2B, 24 h, Western Blot, vs DMSO; read-out: KAT2B NCI-H1048 DC50
Chain of KAT2B (Q92831 whole entry): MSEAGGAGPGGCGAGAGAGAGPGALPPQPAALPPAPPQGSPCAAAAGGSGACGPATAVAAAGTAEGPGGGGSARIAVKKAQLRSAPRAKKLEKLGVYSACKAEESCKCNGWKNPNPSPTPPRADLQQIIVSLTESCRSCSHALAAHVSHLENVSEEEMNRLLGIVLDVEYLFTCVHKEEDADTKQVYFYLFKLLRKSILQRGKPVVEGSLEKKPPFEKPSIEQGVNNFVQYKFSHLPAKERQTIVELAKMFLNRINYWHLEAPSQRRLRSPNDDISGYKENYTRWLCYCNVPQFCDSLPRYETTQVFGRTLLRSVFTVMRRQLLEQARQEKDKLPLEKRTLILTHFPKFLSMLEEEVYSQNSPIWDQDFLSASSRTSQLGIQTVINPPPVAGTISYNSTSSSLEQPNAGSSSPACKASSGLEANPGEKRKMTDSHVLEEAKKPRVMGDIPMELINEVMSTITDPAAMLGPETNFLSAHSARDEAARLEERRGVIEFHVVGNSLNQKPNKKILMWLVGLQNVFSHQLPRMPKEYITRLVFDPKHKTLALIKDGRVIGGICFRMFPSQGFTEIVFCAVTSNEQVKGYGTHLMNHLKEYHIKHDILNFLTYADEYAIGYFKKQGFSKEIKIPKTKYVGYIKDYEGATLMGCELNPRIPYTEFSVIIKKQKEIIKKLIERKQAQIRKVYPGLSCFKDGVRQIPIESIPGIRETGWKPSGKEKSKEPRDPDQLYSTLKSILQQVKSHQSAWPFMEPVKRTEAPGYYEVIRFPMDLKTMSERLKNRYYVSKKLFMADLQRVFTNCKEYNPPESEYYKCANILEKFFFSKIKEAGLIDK
Protocol: as §1, §2, §3, §4

Chain of KAT2A (Q92830 whole entry): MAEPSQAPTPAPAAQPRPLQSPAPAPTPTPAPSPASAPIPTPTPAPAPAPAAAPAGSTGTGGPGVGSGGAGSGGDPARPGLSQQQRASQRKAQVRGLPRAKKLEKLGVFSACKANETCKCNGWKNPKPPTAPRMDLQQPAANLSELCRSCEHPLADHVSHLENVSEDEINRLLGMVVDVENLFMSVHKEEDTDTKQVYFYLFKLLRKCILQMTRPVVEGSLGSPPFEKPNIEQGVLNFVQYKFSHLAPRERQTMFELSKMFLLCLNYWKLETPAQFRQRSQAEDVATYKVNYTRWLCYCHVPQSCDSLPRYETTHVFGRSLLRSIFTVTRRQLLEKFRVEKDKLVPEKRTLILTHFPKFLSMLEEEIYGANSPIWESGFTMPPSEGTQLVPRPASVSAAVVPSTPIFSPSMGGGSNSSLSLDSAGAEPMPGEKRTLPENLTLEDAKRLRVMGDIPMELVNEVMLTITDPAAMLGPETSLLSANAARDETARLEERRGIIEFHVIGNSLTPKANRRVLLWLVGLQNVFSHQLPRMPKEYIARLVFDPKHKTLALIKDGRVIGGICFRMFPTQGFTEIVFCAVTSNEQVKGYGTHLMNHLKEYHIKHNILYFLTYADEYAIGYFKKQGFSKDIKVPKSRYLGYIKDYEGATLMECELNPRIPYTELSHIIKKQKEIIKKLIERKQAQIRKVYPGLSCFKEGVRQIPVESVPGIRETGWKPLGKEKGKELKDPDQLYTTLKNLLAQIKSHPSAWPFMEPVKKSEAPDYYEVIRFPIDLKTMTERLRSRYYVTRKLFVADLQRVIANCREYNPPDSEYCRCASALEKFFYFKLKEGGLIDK

DC50 (KAT2A) [nM] | DC50 (KAT2B) [nM] | Compound
< 1 | 1 to 30 | Cc1c(C2CCC(=O)NC2=O)ccc(N2CCC3(CCN(C(=O)c4ccc([C@H]5C[C@@H](Nc6cnn(C)c(=O)c6Br)CN(C)C5)cc4)CC3)CC2)c1F (stereo partly shown) [Compound 254]
< 1 | < 1 | Cc1cc(N2CCC3(CCN(C(=O)c4ccc([C@H]5C[C@@H](Nc6cnn(C)c(=O)c6C)CN(C)C5)cc4)CC3)CC2)cc(F)c1C1CCC(=O)NC1=O (stereo partly shown) [Compound 255]
< 1 | 1 to 30 | Cc1c(C2CCC(=O)NC2=O)ccc(N2CCC3(CCN(C(=O)c4ccc([C@H]5C[C@@H](Nc6cnn(C)c(=O)c6C)CN(C)C5)cc4)CC3)CC2)c1F (stereo partly shown) [Compound 256]
< 1 | 1 to 30 | COc1cc(C2CCC(=O)NC2=O)ccc1N1CCC2(CCN(C(=O)c3ccc([C@H]4C[C@@H](Nc5cnn(C)c(=O)c5C)CN(C)C4)cc3)CC2)CC1 (stereo partly shown) [Compound 257]
< 1 | > 30 | COc1cc(C2CCC(=O)NC2=O)ccc1N1CCC2(CCN(C(=O)c3ccc([C@H]4C[C@@H](Nc5cnn(C)c(=O)c5Cl)CN(C)C4)cc3)CC2)CC1 (stereo partly shown) [Compound 258]
< 1 | 1 to 30 | CN1C[C@H](Nc2cnn(C)c(=O)c2Br)C[C@H](c2ccc(C(=O)N3CCC4(CC3)CCN(c3ccc(C5CCC(=O)NC5=O)cc3OC(F)(F)F)CC4)cc2)C1 (stereo partly shown) [Compound 259]
< 1 | 1 to 30 | CN1C[C@H](Nc2cnn(C)c(=O)c2Cl)C[C@H](c2ccc(C(=O)N3CCC4(CC3)CCN(c3ccc(C5CCC(=O)NC5=O)cc3OC(F)(F)F)CC4)cc2)C1 (stereo partly shown) [Compound 260]
< 1 | < 1 | CN1C[C@H](Nc2cnn(C)c(=O)c2Br)C[C@H](c2ccc(C(=O)N3CCC4(CC3)CCN(c3ccc(C5CCC(=O)NC5=O)cn3)CC4)cc2)C1 (stereo partly shown) [Compound 261]
< 1 | 1 to 30 | CN1C[C@H](Nc2cnn(C)c(=O)c2Cl)C[C@H](c2ccc(C(=O)N3CCC4(CC3)CCN(c3ccn(C5CCC(=O)NC5=O)c(=O)c3)CC4)cc2)C1 (stereo partly shown) [Compound 262]
< 1 | < 1 | COc1cc(N2CCC3(CCN(C(=O)c4ccc([C@H]5C[C@@H](Nc6cnn(C)c(=O)c6Br)CN(C)C5)cc4)CC3)CC2)ccc1C1CCC(=O)NC1=O (stereo partly shown) [Compound 263]
< 1 | < 1 | CN1C[C@H](Nc2cnn(C)c(=O)c2Cl)C[C@H](c2ccc(C(=O)N3CCC4(CC3)CCN(c3ncc(C5CCC(=O)NC5=O)cn3)CC4)cc2)C1 (stereo partly shown) [Compound 264]
< 1 | < 1 | Cc1cc(N2CCC3(CCN(C(=O)c4ccc([C@H]5C[C@@H](Nc6cnn(C)c(=O)c6Br)CN(C)C5)cc4)CC3)CC2)ccc1C1CCC(=O)NC1=O (stereo partly shown) [Compound 265]
< 1 | < 1 | Cc1cc(N2CCC3(CCN(C(=O)c4ccc([C@H]5C[C@@H](Nc6cnn(C)c(=O)c6Cl)CN(C)C5)cc4)CC3)CC2)ncc1C1CCC(=O)NC1=O (stereo partly shown) [Compound 266]
< 1 | < 1 | Cc1cc(C2CCC(=O)NC2=O)cnc1N1CCC2(CCN(C(=O)c3ccc([C@H]4C[C@@H](Nc5cnn(C)c(=O)c5Cl)CN(C)C4)cc3)CC2)CC1 (stereo partly shown) [Compound 267]
< 1 | > 30 | CN1C[C@H](Nc2cnn(C)c(=O)c2Cl)C[C@H](c2ccc(C(=O)N3CCC4(CC3)CCN(c3ccc(CN5CCC(=O)NC5=O)cc3)CC4)cc2)C1 [Compound 268]
1 to 30 | > 30 | Cc1c(N[C@@H]2C[C@H](c3ccc(C(=O)N4CCC5(CC4)CCN(c4ccc(C6CCC(=O)NC6=O)cc4OC(F)(F)F)CC5)cc3)CN(C)C2)cnn(C)c1=O (stereo partly shown) [Compound 269]
> 30 | > 30 | CN1C[C@H](Nc2cnn(C)c(=O)c2Cl)C[C@H](c2ccc(C(=O)N3CCC4(CC3)CCN(c3cc(C(F)(F)F)c(C5CCC(=O)NC5=O)cn3)CC4)cc2)C1 (stereo partly shown) [Compound 270]
< 1 | < 1 | CN1C[C@H](Nc2cnn(C)c(=O)c2Br)C[C@H](c2ccc(C(=O)N3CCC4(CC3)CCN(c3ncc(C5CCC(=O)NC5=O)cn3)CC4)cc2)C1 (stereo partly shown) [Compound 271]
< 1 | > 30 | Cc1c(N[C@@H]2C[C@H](c3ccc(C(=O)N4CCC5(CC4)CCN(c4cnc(C6CCC(=O)NC6=O)c(F)c4)CC5)cc3)CN(C)C2)cnn(C)c1=O (stereo partly shown) [Compound 272]

DC50 (KAT2A) [nM] | DC50 (KAT2B) [nM] | Compound
< 1 | < 1 | Cc1cc(N2CCC3(CCN(C(=O)c4ccc([C@H]5C[C@@H](Nc6cnn(C)c(=O)c6Br)CN(C)C5)cc4)CC3)CC2)ncc1C1CCC(=O)NC1=O (stereo partly shown) [Compound 273]
< 1 | < 1 | Cc1cc(C2CCC(=O)NC2=O)cnc1N1CCC2(CCN(C(=O)c3ccc([C@H]4C[C@@H](Nc5cnn(C)c(=O)c5Br)CN(C)C4)cc3)CC2)CC1 (stereo partly shown) [Compound 274]
1 to 30 | 1 to 30 | Cc1cc(C2CCC(=O)NC2=O)c(F)cc1N1CCC2(CCN(C(=O)c3ccc([C@H]4C[C@@H](Nc5cnn(C)c(=O)c5Br)CN(C)C4)cc3)CC2)CC1 (stereo partly shown) [Compound 275]
< 1 | < 1 | CN1C[C@H](Nc2cnn(C)c(=O)c2Cl)C[C@H](c2ccc(C(=O)N3CCC4(CC3)CCN(c3cc(F)c(C5CCC(=O)NC5=O)cc3F)CC4)cc2)C1 (stereo partly shown) [Compound 276]
> 30 | > 30 | CN1C[C@H](Nc2cnn(C)c(=O)c2Cl)C[C@H](c2ccc(C(=O)N3CCC4(CC3)CCN(c3ccc(C5CCC(=O)NC5=O)c(OC(F)(F)F)c3)CC4)cc2)C1 (stereo partly shown) [Compound 277]
1 to 30 | > 30 | COc1cc(N2CCC3(CCN(C(=O)c4ccc([C@H]5C[C@@H](Nc6cnn(C)c(=O)c6Br)CN(C)C5)cc4)CC3)CC2)c(F)cc1C1CCC(=O)NC1=O (stereo partly shown) [Compound 278]
< 1 | > 30 | COc1cc(N2CCC3(CCN(C(=O)c4ccc([C@H]5C[C@@H](Nc6cnn(C)c(=O)c6Cl)CN(C)C5)cc4)CC3)CC2)c(F)cc1C1CCC(=O)NC1=O (stereo partly shown) [Compound 279]
< 1 | < 1 | Cc1cc(N2CCC3(CCN(C(=O)c4ccc([C@H]5C[C@@H](Nc6cnn(C)c(=O)c6Cl)CN(C)C5)cc4)CC3)CC2)cc(C)c1C1CCC(=O)NC1=O (stereo partly shown) [Compound 283]
< 1 | > 30 | COc1cc(N2CCC3(CCN(C(=O)c4ccc([C@H]5C[C@@H](Nc6cnn(C)c(=O)c6Br)CN(C)C5)cc4)CC3)CC2)c(C)cc1C1CCC(=O)NC1=O (stereo partly shown) [Compound 284]
< 1 | > 30 | COc1cc(N2CCC3(CCN(C(=O)c4ccc([C@H]5C[C@@H](Nc6cnn(C)c(=O)c6Cl)CN(C)C5)cc4)CC3)CC2)c(C)cc1C1CCC(=O)NC1=O (stereo partly shown) [Compound 285]
< 1 | 1 to 30 | COc1cc(N2CCC3(CCN(C(=O)c4ccc([C@H]5C[C@@H](Nc6cnn(C)c(=O)c6Cl)CN(C)C5)cc4)CC3)CC2)cc(C)c1C1CCC(=O)NC1=O (stereo partly shown) [Compound 286]
< 1 | 1 to 30 | COc1cc(N2CCC3(CCN(C(=O)c4ccc([C@H]5C[C@@H](Nc6cnn(C)c(=O)c6Br)CN(C)C5)cc4)CC3)CC2)cc(C)c1C1CCC(=O)NC1=O (stereo partly shown) [Compound 287]
< 1 | < 1 | Cc1cc(N2CCC3(CCN(C(=O)c4ccc([C@H]5C[C@@H](Nc6cnn(C)c(=O)c6Cl)CN(C)C5)cc4)CC3)CC2)cc(F)c1C1CCC(=O)NC1=O (stereo partly shown) [Compound 288]
< 1 | > 30 | CN1C[C@H](Nc2cnn(C)c(=O)c2Cl)C[C@H](c2ccc(C(=O)N3CCC4(CC3)CN(c3ccc(C5CCC(=O)NC5=O)c(F)c3)C4)cc2)C1 (stereo partly shown) [Compound 289]
1 to 30 | > 30 | Cc1cc(N2CC3(CCN(C(=O)c4ccc([C@H]5C[C@@H](Nc6cnn(C)c(=O)c6Cl)CN(C)C5)cc4)CC3)C2)ccc1C1CCC(=O)NC1=O (stereo partly shown) [Compound 290]
< 1 | 1 to 30 | Cc1cc(N2CC3(CCN(C(=O)c4ccc([C@H]5C[C@@H](Nc6cnn(C)c(=O)c6Br)CN(C)C5)cc4)CC3)C2)ccc1C1CCC(=O)NC1=O (stereo partly shown) [Compound 291]
< 1 | 1 to 30 | Cc1cc(N2CCC3(CC2)CN(C(=O)c2ccc([C@H]4C[C@@H](Nc5cnn(C)c(=O)c5Br)CN(C)C4)cc2)C3)ccc1C1CCC(=O)NC1=O (stereo partly shown) [Compound 292]
< 1 | 1 to 30 | CN1C[C@H](Nc2cnn(C)c(=O)c2Cl)C[C@H](c2ccc(C(=O)N3CCC4(CC3)CCN(c3ccc5c(C6CCC(=O)NC6=O)nccc5c3)CC4)cc2)C1 (stereo partly shown) [Compound 293]
< 1 | < 1 | CN1C[C@H](Nc2cnn(C)c(=O)c2Br)C[C@H](c2ccc(C(=O)N3CCC4(CC3)CCN(c3ccc5c(C6CCC(=O)NC6=O)nccc5c3)CC4)cc2)C1 (stereo partly shown) [Compound 294]
